Measurements taken from the NIST ThermoML archive (doi:10.1007/s10765-019-2537-x).

Conditions: Liquid, transient hot wire

Cc1ccccc1 [toluene]
Conditions | thermal conductivity [W/m/K]
317.39 K, 5130 kPa | 0.1266
317.42 K, 1050 kPa | 0.1251
317.42 K, 10550 kPa | 0.1277
317.46 K, 15330 kPa | 0.1292
317.52 K, 20330 kPa | 0.133
336.3 K, 20300 kPa | 0.1267
336.32 K, 10150 kPa | 0.1229
336.34 K, 15140 kPa | 0.1245
336.39 K, 5020 kPa | 0.1205
336.42 K, 1030 kPa | 0.1194
356.27 K, 15170 kPa | 0.1205
356.27 K, 20040 kPa | 0.1218
356.36 K, 10440 kPa | 0.1184
356.41 K, 1160 kPa | 0.1131
356.43 K, 5170 kPa | 0.1166
376.88 K, 20030 kPa | 0.1185
376.95 K, 5200 kPa | 0.1108
376.95 K, 10160 kPa | 0.1124
376.95 K, 15270 kPa | 0.1147
377.07 K, 1080 kPa | 0.1096
395.96 K, 15140 kPa | 0.1121
396.23 K, 10180 kPa | 0.1091
396.26 K, 20010 kPa | 0.1141
396.28 K, 5150 kPa | 0.1072
396.32 K, 1030 kPa | 0.1059
416.29 K, 20250 kPa | 0.1104
416.33 K, 15150 kPa | 0.1066
416.68 K, 5290 kPa | 0.1033
416.72 K, 10280 kPa | 0.1054
416.75 K, 1040 kPa | 0.1013
436.23 K, 20100 kPa | 0.1051
436.34 K, 15130 kPa | 0.1036
436.37 K, 1020 kPa | 0.0972
436.48 K, 10230 kPa | 0.1026
436.52 K, 5170 kPa | 0.0992
456.02 K, 20030 kPa | 0.1029
456.04 K, 5400 kPa | 0.0956
456.22 K, 15290 kPa | 0.1003
456.24 K, 10330 kPa | 0.099
456.26 K, 1140 kPa | 0.0928
476.35 K, 10170 kPa | 0.0941
476.38 K, 20260 kPa | 0.0994
476.61 K, 1110 kPa | 0.0901
476.73 K, 5010 kPa | 0.0914
476.75 K, 15330 kPa | 0.0965
496.03 K, 20300 kPa | 0.0962
496.15 K, 2850 kPa | 0.0875
496.27 K, 15290 kPa | 0.0945
496.31 K, 10420 kPa | 0.0928
496.49 K, 5210 kPa | 0.087
516.06 K, 20190 kPa | 0.094
516.2 K, 15360 kPa | 0.0916
516.21 K, 10220 kPa | 0.0906
516.4 K, 5090 kPa | 0.0862
536.3 K, 10150 kPa | 0.0873
536.39 K, 15400 kPa | 0.0897
536.56 K, 20330 kPa | 0.0921
556.53 K, 15430 kPa | 0.0908
556.59 K, 20100 kPa | 0.0927
556.68 K, 10050 kPa | 0.0869
576.72 K, 20150 kPa | 0.0885
